Reference: publication PMC9023544, “Ketone-selenoesters as potential anticancer and multidrug resistance modulation agents in 2D and 3D ovarian and breast cancer in vitro models” (Scientific Reports, 2022)

Tested on: ABC superfamily genes in MCF-7/PAX
Assay: Expression of genes encoding ABC transporters, qPCR
Assay type: cell-based, human
Method: Based on the fact that compounds K3, K4, K7 sensitized drug-resistant cell lines (HOC/ADR, MCF-7/PAX) and modulated ATPase activity of one from the ABC proteins (P-gp), we verified the potential of these compounds to affect ABC superfamily gene expression. The ovarian and breast cancer cell lines (parental cells and resistant sub-line) were analysed for the expression profile of genes encoding the ABC proteins in the previous works[18]–[20]. […] After 48 h, the effect of compounds alone or in the combination with cytostatics was observed (Supplementary Tables 1, Table 2).
To determine the impact of selected compounds on the expression of genes encoding ABC transporter, HOC/ADR and MCF-7/PAX cells were seeded for 24 h into 5 cm Petri dishes with DMEM medium at the cell density 1 × 10^5 cells/mL. Afterwards, the cells were washed 1× with PBS and new fresh DMEM supplemented with K3, K4, and K7 (in concentration corresponding to their IC10 value) alone or combined with cytostatics (Adriamycin or paclitaxel in concentration corresponding to their IC25 value) was added. In the experiment, positive and negative control was also included (positive—untreated cells, negative—cells treated only with cytostatics). After 48 h exposure, the cells were washed once with PBS and released from the surface by using the above-mentioned trypsin–EDTA procedure. The enzyme reaction was stopped by medium addition and the cells were centrifuged (3200×g; 10 min, 4 °C). The supernatants were removed and before the next centrifugation, the pellets were resuspended in 1.5 mL of cooled PBS (5400×g; 10 min, 4 °C). After the second washing step, the cells were centrifuged another time (10,000×g; 3 min, 4 °C). Subsequently, 1 mL of Trizol (Invitrogen) was added to the pellets and the compounds were stored − 80 °C.
The RNA concentration of selenoester treated samples was determined using QuantiT RiboGreen RNA Assay Kit and Infinite M200 plate reader (Tecan, Männedor, Switzerland). The cDNA was synthesized from 0.5 µg of total RNA by RevertAid First Strand Synthesis cDNA Kit (MBI Fermentas, Vilnius, Lithuania). To determine the quality of cDNA, the ubiquitin C gene fragment was amplified. The experiment was performed in 384-well block by using ViiA7 Real-Time PCR System (Life Technologies, Camarillo, California, United States). A master mix contained 0.25 µL of 20× TaqMan Gene Expression Assay, 1 µL of 5× HotFIREPol Probe qPCR Mix Plus, 1.75 µL of RNase free water and 2 µL of 8× diluted cDNA. The final reaction volume was 5 µL. The PCR parameters were as follows: initial hold (50 °C for 2 min), denaturation (95 °C for 10 min), followed by 45 cycles (denaturation at 95 °C for 15 s, annealing at 60 °C for 1 min). After each cycle, the fluorescent signal was determined. For each compound, duplicates were analysed and those with a standard deviation higher than 0.5 Ct were re-analysed. A quantitate real-time PCR was followed by MIQE guidelines. To compare the relative transcript levels of genes, the software REST 2009 (Qiagen, Hilden, Germany) was used.
Table 2. Effect of selenoesters either on the expression of the ABC gene superfamily in paclitaxel-resistant breast cancer cell line (MCF-7/PAX).
Gene expression of ABC transporters were estimated using comercial predesigned Taqman Gene Expression Assays (Life technologies). TaqMan Gene Expression Assays are based on 5´ nuclease chemistry, and each assay contains the primer and probe set for target of interest. Taqman assays IDs and GenBank Accession numbers of reference sequencies identifying their location and amplicon lengths are included in the Supplementary Table I. * Relative transcript levels (P-value ) in treated and non-treated cancer cell lines were compared using REST 2009 software.

## CC(=O)C[Se]C(=O)c1ccc(Br)cc1 [K3]
  number of ABC genes with altered expression: 30
IC10 alone, 48 h
  ABCA2 Expression Difference: 0.188
  ABCA2 Treated vs. Untr.: DOWN
  ABCA3 Expression Difference: 0.481
  ABCA3 Treated vs. Untr.: DOWN
  ABCA4 Expression Difference: 27.38
  ABCA5 Expression Difference: 0.559
  ABCA5 Treated vs. Untr.: DOWN
  ABCA7 Expression Difference: 0.5100
  ABCA7 Treated vs. Untr.: DOWN
  ABCA12 Expression Difference: 1.149
  ABCB1 Expression Difference: 0.401
  ABCB1 Treated vs. Untr.: DOWN
  ABCB2 Expression Difference: 0.354
  ABCB2 Treated vs. Untr.: DOWN
  ABCB3 Expression Difference: 0.235
  ABCB3 Treated vs. Untr.: DOWN
  ABCB6 Expression Difference: 0.340
  ABCB6 Treated vs. Untr.: DOWN
  ABCB7 Expression Difference: 0.143
  ABCB7 Treated vs. Untr.: DOWN
  ABCB8 Expression Difference: 0.488
  ABCB8 Treated vs. Untr.: DOWN
  ABCB9 Expression Difference: 0.422
  ABCB9 Treated vs. Untr.: DOWN
  ABCB10 Expression Difference: 0.922
  ABCB10 Treated vs. Untr.: DOWN
  ABCC1 Expression Difference: 0.272
  ABCC1 Treated vs. Untr.: DOWN
  ABCC2 Expression Difference: 0.076
  ABCC2 Treated vs. Untr.: DOWN
  ABCC3 Expression Difference: 15.79
  ABCC4 Expression Difference: 0.221
  ABCC4 Treated vs. Untr.: DOWN
  ABCC5 Expression Difference: 1.010
  ABCC6 Expression Difference: 0.958
  ABCC6 Treated vs. Untr.: DOWN
  ABCC8 Expression Difference: 0.648
  ABCC8 Treated vs. Untr.: DOWN
  ABCC10 Expression Difference: 0.171
  ABCC10 Treated vs. Untr.: DOWN
  ABCD1 Expression Difference: 0.123
  ABCD1 Treated vs. Untr.: DOWN
  ABCD3 Expression Difference: 0.267
  ABCD3 Treated vs. Untr.: DOWN
  ABCD4 Expression Difference: 0.971
  ABCE1 Expression Difference: 0.552
  ABCE1 Treated vs. Untr.: DOWN
  ABCF1 Expression Difference: 2.388
  ABCF2 Expression Difference: 0.625
  ABCF2 Treated vs. Untr.: DOWN
  ABCF3 Expression Difference: 0.487
  ABCF3 Treated vs. Untr.: DOWN
  ABCG1 Expression Difference: 0.132
  ABCG1 Treated vs. Untr.: DOWN
  ABCG2 Expression Difference: 0.250
  ABCG2 Treated vs. Untr.: DOWN
  ABCG4 Expression Difference: 0.204
  ABCG4 Treated vs. Untr.: DOWN
  decrease of expression of ABCB1 (P-gp) encoding gene: 60%
  downregulation of expression of ABCC1 (MRP1): 73%
  downregulation of expression of ABCG2: 75%

## CC(=O)C[Se]C(=O)c1ccccc1C(F)(F)F [K4]
  number of ABC genes with altered expression: 31
IC10 alone, 48 h
  ABCA2 Expression Difference: 0.282
  ABCA2 Treated vs. Untr.: DOWN
  ABCA3 Expression Difference: 0.766
  ABCA3 Treated vs. Untr.: DOWN
  ABCA4 Expression Difference: 40.43
  ABCA5 Expression Difference: 0.789
  ABCA5 Treated vs. Untr.: DOWN
  ABCA7 Expression Difference: 0.757
  ABCA7 Treated vs. Untr.: DOWN
  ABCA12 Expression Difference: 1.702
  ABCB1 Expression Difference: 0.568
  ABCB1 Treated vs. Untr.: DOWN
  ABCB2 Expression Difference: 0.467
  ABCB2 Treated vs. Untr.: DOWN
  ABCB3 Expression Difference: 0.323
  ABCB3 Treated vs. Untr.: DOWN
  ABCB6 Expression Difference: 0.524
  ABCB6 Treated vs. Untr.: DOWN
  ABCB7 Expression Difference: 0.214
  ABCB7 Treated vs. Untr.: DOWN
  ABCB8 Expression Difference: 0.683
  ABCB8 Treated vs. Untr.: DOWN
  ABCB9 Expression Difference: 0.639
  ABCB9 Treated vs. Untr.: DOWN
  ABCB10 Expression Difference: 1.163
  ABCC1 Expression Difference: 0.398
  ABCC1 Treated vs. Untr.: DOWN
  ABCC2 Expression Difference: 0.127
  ABCC2 Treated vs. Untr.: DOWN
  ABCC3 Expression Difference: 26.21
  ABCC4 Expression Difference: 0.316
  ABCC4 Treated vs. Untr.: DOWN
  ABCC5 Expression Difference: 1.378
  ABCC6 Expression Difference: 2.041
  ABCC8 Expression Difference: 1.590
  ABCC10 Expression Difference: 0.265
  ABCC10 Treated vs. Untr.: DOWN
  ABCD1 Expression Difference: 0.179
  ABCD1 Treated vs. Untr.: DOWN
  ABCD3 Expression Difference: 0.365
  ABCD3 Treated vs. Untr.: DOWN
  ABCD4 Expression Difference: 1.288
  ABCE1 Expression Difference: 0.795
  ABCE1 Treated vs. Untr.: DOWN
  ABCF1 Expression Difference: 3.646
  ABCF2 Expression Difference: 0.942
  ABCF3 Expression Difference: 0.753
  ABCF3 Treated vs. Untr.: DOWN
  ABCG1 Expression Difference: 0.325
  ABCG1 Treated vs. Untr.: DOWN
  ABCG2 Expression Difference: 0.378
  ABCG2 Treated vs. Untr.: DOWN
  ABCG4 Expression Difference: 0.412
  ABCG4 Treated vs. Untr.: DOWN
  decrease of expression of ABCB1 (P-gp) encoding gene: 43%
  downregulation of expression of ABCC1 (MRP1): 60%
  downregulation of expression of ABCG2: 62%

## CC(=O)C[Se]C(=O)c1ccc(C(C)(C)C)cc1 [K7]
  number of ABC genes with altered expression: 32
IC10 alone, 48 h
  ABCA2 Expression Difference: 0.159
  ABCA2 Treated vs. Untr.: DOWN
  ABCA3 Expression Difference: 0.376
  ABCA3 Treated vs. Untr.: DOWN
  ABCA4 Expression Difference: 20.68
  ABCA5 Expression Difference: 0.600
  ABCA5 Treated vs. Untr.: DOWN
  ABCA7 Expression Difference: 0.384
  ABCA7 Treated vs. Untr.: DOWN
  ABCA12 Expression Difference: 0.745
  ABCA12 Treated vs. Untr.: DOWN
  ABCB1 Expression Difference: 0.361
  ABCB1 Treated vs. Untr.: DOWN
  ABCB2 Expression Difference: 0.274
  ABCB2 Treated vs. Untr.: DOWN
  ABCB3 Expression Difference: 0.164
  ABCB3 Treated vs. Untr.: DOWN
  ABCB6 Expression Difference: 0.305
  ABCB6 Treated vs. Untr.: DOWN
  ABCB7 Expression Difference: 0.131
  ABCB7 Treated vs. Untr.: DOWN
  ABCB8 Expression Difference: 0.407
  ABCB8 Treated vs. Untr.: DOWN
  ABCB9 Expression Difference: 0.340
  ABCB9 Treated vs. Untr.: DOWN
  ABCB10 Expression Difference: 0.822
  ABCB10 Treated vs. Untr.: DOWN
  ABCC1 Expression Difference: 0.238
  ABCC1 Treated vs. Untr.: DOWN
  ABCC2 Expression Difference: 0.061
  ABCC2 Treated vs. Untr.: DOWN
  ABCC3 Expression Difference: 15.69
  ABCC4 Expression Difference: 0.213
  ABCC4 Treated vs. Untr.: DOWN
  ABCC5 Expression Difference: 0.933
  ABCC5 Treated vs. Untr.: DOWN
  ABCC6 Expression Difference: 0.424
  ABCC6 Treated vs. Untr.: DOWN
  ABCC8 Expression Difference: 0.651
  ABCC8 Treated vs. Untr.: DOWN
  ABCC10 Expression Difference: 0.170
  ABCC10 Treated vs. Untr.: DOWN
  ABCD1 Expression Difference: 0.104
  ABCD1 Treated vs. Untr.: DOWN
  ABCD3 Expression Difference: 0.247
  ABCD3 Treated vs. Untr.: DOWN
  ABCD4 Expression Difference: 0.872
  ABCD4 Treated vs. Untr.: DOWN
  ABCE1 Expression Difference: 0.505
  ABCE1 Treated vs. Untr.: DOWN
  ABCF1 Expression Difference: 2.263
  ABCF2 Expression Difference: 0.601
  ABCF2 Treated vs. Untr.: DOWN
  ABCF3 Expression Difference: 0.484
  ABCF3 Treated vs. Untr.: DOWN
  ABCG1 Expression Difference: 0.307
  ABCG1 Treated vs. Untr.: DOWN
  ABCG2 Expression Difference: 0.207
  ABCG2 Treated vs. Untr.: DOWN
  ABCG4 Expression Difference: 0.188
  ABCG4 Treated vs. Untr.: DOWN
  decrease of expression of ABCB1 (P-gp) encoding gene: 64%
  downregulation of expression of ABCC1 (MRP1): 76%
  downregulation of expression of ABCG2: 80%
